Patent US11566007B2, “Ras inhibitors” (Revolution Medicines, Inc., priority 2019, dated 2023)
Where two headings read alike, the source gives them in different places.

Legend:
[1] = system: NCI-H358 cells (K-Ras G12C); assay: Potency assay: pERK in NCI-H358 cells; assay type: cell-based, human; details: Homo sapiens, NCI-H358; H358 KRAS G12C; read-out: pERK EC50
Outline: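 4 h cpd, 37 °C; 10-pt 3-fold series, 10 mM DMSO top stock, duplicates. Readout pERK: AlphaLISA SureFire Ultra or In-Cell Western (IR-800CW secondary, DRAQ5 DNA stain). IC50, 4-PL fit vs log conc.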

NCI-H358 (K-Ras G12C) = assay: CellTiter-Glo cell viability assay, NCI-H358; assay type: cell-based, human; details: Homo sapiens, NCI-H358, 120 h, class symbols
Outline: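 Viability of K-Ras mutant lines is measured by ATP luminescence after five days of compound treatment. Percent of DMSO control is calculated and dose-response data are fitted with a four-parameter logistic equation.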

K-Ras G13C = K-Ras G13C (Homo sapiens (Human), UniProt P01116+P62937, G13C); assay: Ras-Raf (BRAF RBD) disruption / FRET / MOA assay, KRAS G13C; assay type: biochemical; details: KRAS G13C; Ras-Raf disruption/FRET/MOA assay; read-out: IC50* KRAS G13C FRET data
Chain of K-Ras G13C (P01116-2 other isoform, or with tags, fused parts or gaps G13C): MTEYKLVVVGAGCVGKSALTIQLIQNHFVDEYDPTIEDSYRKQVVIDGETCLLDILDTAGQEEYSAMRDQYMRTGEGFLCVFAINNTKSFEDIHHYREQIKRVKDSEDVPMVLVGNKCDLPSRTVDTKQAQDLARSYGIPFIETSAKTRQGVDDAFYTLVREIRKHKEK
Chain of K-Ras G13C (P62937 whole entry): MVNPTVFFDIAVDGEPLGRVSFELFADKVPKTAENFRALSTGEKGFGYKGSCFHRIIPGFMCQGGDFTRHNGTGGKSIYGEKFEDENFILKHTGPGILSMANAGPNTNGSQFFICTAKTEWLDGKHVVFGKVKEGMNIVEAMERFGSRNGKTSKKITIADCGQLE
Outline: (§1)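 Compound-driven ternary complex of nucleotide-loaded Ras with cyclophilin A, disrupting BRAF RBD binding. 10-point 3-fold dilution from 30 μM final, 3 h at 25° C, then anti-His Eu-W1024 (10 nM) and anti-GST allophycocyanin (50 nM) for 1.5 h. IC50 from TR-FRET ratio decrease versus DMSO.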

KRAS WT = KRAS WT (Homo sapiens (Human), UniProt P01116+P62937); assay: Ras-Raf (BRAF RBD) disruption / FRET / MOA assay, KRAS WT; assay type: biochemical; details: read-out: IC50* KRAS WT FRET data
Chain of KRAS WT (P01116-2 other isoform, or with tags, fused parts or gaps): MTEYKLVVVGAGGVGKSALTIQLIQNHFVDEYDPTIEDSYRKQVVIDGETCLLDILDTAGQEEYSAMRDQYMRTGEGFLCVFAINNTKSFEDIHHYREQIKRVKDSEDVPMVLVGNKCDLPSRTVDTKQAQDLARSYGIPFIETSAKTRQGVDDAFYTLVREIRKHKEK
Chain of KRAS WT (P62937 whole entry): as the sequence (P62937 whole entry) above
Outline: as §1

NRAS Q61R = NRAS Q61R (Homo sapiens (Human), UniProt P01111+P62937, Q61R); assay: Ras-Raf (BRAF RBD) disruption / FRET / MOA assay, NRAS Q61R; assay type: biochemical
Chain of NRAS Q61R (P01111 whole entry Q61R): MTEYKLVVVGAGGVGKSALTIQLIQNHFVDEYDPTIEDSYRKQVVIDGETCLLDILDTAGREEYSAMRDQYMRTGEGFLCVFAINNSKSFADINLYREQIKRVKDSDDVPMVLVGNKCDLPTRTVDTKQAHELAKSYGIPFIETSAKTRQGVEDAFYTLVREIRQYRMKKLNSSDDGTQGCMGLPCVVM
Chain of NRAS Q61R (P62937 whole entry): as the sequence (P62937 whole entry) above
Outline: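 Compounds (30 μM top final, 10-point 3-fold dilutions) incubated 3 h at 25° C with nucleotide-loaded Ras, cyclophilin A and BRAF RBD. Detection with 10 nM anti-His Eu-W1024 and 50 nM anti-GST allophycocyanin over another 1.5 h. Lowered TR-FRET ratio relative to DMSO wells gives IC50.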

[2] = NCI-H358, 5-day treatment, read-out: Additional H358 Cell Viability assay data (K-Ras G12C, IC50)
[3] = NRAS Q61R, Ras-Raf disruption/FRET/MOA assay, read-out: IC50* NRAS Q61R FRET data

C=CC(=O)N1CC[C@H](C(=O)N(C)[C@H](C(=O)N[C@H]2CC3=NC=C(O3)c3ccc4c(c3)c(c(-c3cccnc3[C@H](C)OC)n4CC)CC(C)(C)COC(=O)[C@@H]3CCCN(N3)C2=O)C(C)C)C1 (atropisomer, axis not shown) [Example A278]
EC50 [1]: < 5 µM | IC50 (NCI-H358 (K-Ras G12C); [2]): 0.1 to 1 µM | IC50 (K-Ras G13C): 1 to 10 µM | IC50 (KRAS WT): 1 to 10 µM | IC50 (NRAS Q61R; [3]): > 10 µM

CCn1c(-c2cccnc2[C@H](C)OC)c2c3cc(ccc31)-c1cccc(c1)C[C@H](NC(=O)[C@H](C(C)C)N(C)C(=O)[C@H]1CCN(C(=O)C#CC(C)(C)N(C)C)C1)C(=O)N1CCC[C@H](N1)C(=O)OCC(C)(C)C2 (atropisomer, axis not shown) [Example A290]
EC50 [1]: < 5 µM | IC50 (NCI-H358 (K-Ras G12C); [2]): < 0.01 µM | IC50 (K-Ras G13C): 1 to 10 µM | IC50 (KRAS WT): 1 to 10 µM | IC50 (NRAS Q61R; [3]): 1 to 10 µM

C=CS(=O)(=O)N1CCC2(CCN([C@H](C(=O)N[C@H]3Cc4cc(O)cc(c4)-c4ccc5c(c4)c(c(-c4cccnc4[C@H](C)OC)n5CC)CC(C)(C)COC(=O)[C@@H]4CCCN(N4)C3=O)C(C)C)C2=O)CC1 (atropisomer, axis not shown) [Example A299]
EC50 [1]: < 5 µM | IC50 (NCI-H358 (K-Ras G12C); [2]): < 0.01 µM | IC50 (K-Ras G13C): < 0.01 µM | IC50 (KRAS WT): 0.01 to 0.1 µM | IC50 (NRAS Q61R; [3]): 0.1 to 1 µM

CO[C@@H](C)c1ncccc1-c1c2c3cc(ccc3n1CC(F)(F)F)-c1csc(n1)C[C@H](NC(=O)[C@@H](COC1CN(C(=O)C#CC(C)(C)N(C)C)C1)C(C)C)C(=O)N1CCC[C@H](N1)C(=O)OCC(C)(C)C2 (atropisomer, axis not shown) [Example A343]
EC50 [1]: < 5 µM | IC50 (NCI-H358 (K-Ras G12C); [2]): < 0.01 µM | IC50 (K-Ras G13C): 1 to 10 µM | IC50 (KRAS WT): 1 to 10 µM | IC50 (NRAS Q61R; [3]): 1 to 10 µM

C=CC(=O)N1CC[C@H](C(=O)N(C)[C@H](C(=O)N[C@H]2Cc3cc(cc(C(F)F)c3)-c3ccc4c(c3)c(c(-c3cc(N5CCN(C)CC5)cnc3[C@H](C)OC)n4CC(F)(F)F)CC(C)(C)COC(=O)[C@@H]3CCCN(N3)C2=O)C(C)C)C1 (atropisomer, axis not shown) [Example A357]
EC50 [1]: < 5 µM | IC50 (NCI-H358 (K-Ras G12C); [2]): < 0.01 µM | IC50 (K-Ras G13C): 0.1 to 1 µM | IC50 (KRAS WT): 0.1 to 1 µM | IC50 (NRAS Q61R; [3]): 0.1 to 1 µM

CO[C@@H](C)c1ncccc1-c1c2c3cc(ccc3n1CC(F)(F)F)-c1cccc(c1)C[C@H](NC(=O)[C@@H](COC1CN(C(=O)C#CC(C)(C)N(C)C)C1)C(C)C)C(=O)N1CCC[C@H](N1)C(=O)OCC(C)(C)C2 (atropisomer, axis not shown) [Example A376]
EC50 [1]: < 5 µM | IC50 (NCI-H358 (K-Ras G12C); [2]): < 0.01 µM | IC50 (K-Ras G13C): 1 to 10 µM | IC50 (KRAS WT): 1 to 10 µM | IC50 (NRAS Q61R; [3]): > 10 µM

C=CC(=O)N1C[C@H](C)N(C(=O)N(C)[C@H](C(=O)N[C@H]2Cc3nc(cs3)-c3ccc4c(c3)c(c(-c3cccnc3[C@H](C)OC)n4CC)CC(C)(C)COC(=O)[C@@H]3CCCN(N3)C2=O)C(C)C)C[C@@H]1C (atropisomer, axis not shown) [Example A385]
EC50 [1]: < 5 µM | IC50 (NCI-H358 (K-Ras G12C); [2]): < 0.01 µM | IC50 (K-Ras G13C): 0.01 to 0.1 µM | IC50 (KRAS WT): 0.01 to 0.1 µM | IC50 (NRAS Q61R; [3]): 0.01 to 0.1 µM

C=CC(=O)N1CCC12CN(C(=O)N(C)[C@H](C(=O)N[C@H]1Cc3nc(cs3)-c3ccc4c(c3)c(c(-c3cccnc3[C@H](C)OC)n4CC)CC(C)(C)COC(=O)[C@@H]3CCCN(N3)C1=O)C(C)C)C2 (atropisomer, axis not shown) [Example A393]
EC50 [1]: < 5 µM | IC50 (NCI-H358 (K-Ras G12C); [2]): 0.01 to 0.1 µM | IC50 (K-Ras G13C): 0.1 to 1 µM | IC50 (KRAS WT): 0.1 to 1 µM | IC50 (NRAS Q61R; [3]): 0.1 to 1 µM

CCn1c(-c2cccnc2[C@H](C)OC)c2c3cc(ccc31)-c1cc(F)cc(c1)C[C@H](NC(=O)[C@@H](COC1CN(C(=O)C#CC(C)(C)N(C)C)C1)C(C)C)C(=O)N1CCC[C@H](N1)C(=O)OCC(C)(C)C2 (atropisomer, axis not shown) [Example A403]
EC50 [1]: < 5 µM | IC50 (NCI-H358 (K-Ras G12C); [2]): < 0.01 µM | IC50 (K-Ras G13C): 1 to 10 µM | IC50 (KRAS WT): > 10 µM | IC50 (NRAS Q61R; [3]): > 10 µM

C=CC(=O)N1CC2(CCN2C(=O)N(C)[C@H](C(=O)N[C@H]2Cc3nc(cs3)-c3ccc4c(c3)c(c(-c3cccnc3[C@H](C)OC)n4CC)CC(C)(C)COC(=O)[C@@H]3CCCN(N3)C2=O)C(C)C)C1 (atropisomer, axis not shown) [Example A407]
EC50 [1]: < 5 µM | IC50 (NCI-H358 (K-Ras G12C); [2]): < 0.01 µM | IC50 (K-Ras G13C): 0.1 to 1 µM | IC50 (KRAS WT): 0.1 to 1 µM | IC50 (NRAS Q61R; [3]): 0.01 to 0.1 µM

C=CC(=O)N1CC[C@H](C(=O)N(C)[C@H](C(=O)N[C@H]2CC3=NN=C(O3)c3ccc4c(c3)c(c(-c3cccnc3[C@H](C)OC)n4CC)CC(C)(C)COC(=O)[C@@H]3CCCN(N3)C2=O)C(C)C)C1 (atropisomer, axis not shown) [Example A447]
EC50 [1]: < 5 µM | IC50 (NCI-H358 (K-Ras G12C); [2]): 0.1 to 1 µM | IC50 (K-Ras G13C): 1 to 10 µM | IC50 (KRAS WT): 1 to 10 µM | IC50 (NRAS Q61R; [3]): > 10 µM

C=CC(=O)Nc1ncc(C(=O)N(C)[C@H](C(=O)N[C@H]2Cc3cccc(c3)-c3ccc4c(c3)c(c(-c3cccnc3[C@H](C)OC)n4CC)CC(C)(C)COC(=O)[C@@H]3CCCN(N3)C2=O)C(C)C)n1C (atropisomer, axis not shown) [Example A474]
EC50 [1]: < 5 µM | IC50 (NCI-H358 (K-Ras G12C); [2]): < 0.01 µM | IC50 (K-Ras G13C): < 0.01 µM | IC50 (KRAS WT): 1 to 10 µM | IC50 (NRAS Q61R; [3]): 1 to 10 µM

C=CC(=O)N1CC[C@H](C(=O)N2CC[C@H](C)[C@H]2C(=O)N[C@H]2Cc3cccc(c3)-c3ccc4c(c3)c(c(-c3cccnc3[C@H](C)OC)n4CC)CC(C)(C)COC(=O)[C@@H]3CCCN(N3)C2=O)C1 (atropisomer, axis not shown) [Example A494]
EC50 [1]: < 5 µM | IC50 (NCI-H358 (K-Ras G12C); [2]): 0.1 to 1 µM | IC50 (K-Ras G13C): 1 to 10 µM | IC50 (KRAS WT): 1 to 10 µM | IC50 (NRAS Q61R; [3]): 1 to 10 µM

C=CC(=O)N1CC[C@H](C(=O)N2CCCCC[C@H]2C(=O)N[C@H]2Cc3cccc(c3)-c3ccc4c(c3)c(c(-c3cccnc3[C@H](C)OC)n4CC)CC(C)(C)COC(=O)[C@@H]3CCCN(N3)C2=O)C1 (atropisomer, axis not shown) [Example A496]
EC50 [1]: < 5 µM | IC50 (NCI-H358 (K-Ras G12C); [2]): 0.1 to 1 µM | IC50 (K-Ras G13C): 1 to 10 µM | IC50 (KRAS WT): > 10 µM | IC50 (NRAS Q61R; [3]): 1 to 10 µM

CCn1c(-c2cccnc2[C@H](C)OC)c2c3cc(ccc31)-c1cccc(c1)C[C@H](NC(=O)[C@H](C(C)C)N1CC[C@]3(CCN(C(=O)C#CC(C)(C)N(C)C)C3)C1=O)C(=O)N1CCC[C@H](N1)C(=O)OCC(C)(C)C2 (atropisomer, axis not shown) [Example A534, (2S)-2-((S)-7-(4-(dimethylamino)-4-methylpent-2-ynoyl)-1-oxo-2,7-diazaspiro[4.4]nonan-2-yl)-N-((6^3S,4S)-1^1-ethyl-1^2-(2-((S)-1-methoxyethyl)pyridin-3-yl)-10,10-dimethyl-5,7-dioxo-6^1,6^2,6^3,6^4,6^5,6^6-hexahydro-1^1H-8-oxa-1(5,3)-indola-6(1,3)-pyridazina-2(1,3)-benzenacycloundecaphane-4-yl)-3-methylbutanamide]
EC50 [1]: < 5 µM | IC50 (NCI-H358 (K-Ras G12C); [2]): < 0.01 µM | IC50 (K-Ras G13C): 0.1 to 1 µM | IC50 (KRAS WT): 1 to 10 µM | IC50 (NRAS Q61R; [3]): 1 to 10 µM

C=CC(=O)N1CC[C@H]2[C@@H]1CN2C(=O)N(C)[C@H](C(=O)N[C@H]1Cc2nc(cs2)-c2ccc3c(c2)c(c(-c2cccnc2[C@H](C)OC)n3CC)CC(C)(C)COC(=O)[C@@H]2CCCN(N2)C1=O)C(C)C (atropisomer, axis not shown) [Example A547]
EC50 [1]: < 5 µM | IC50 (NCI-H358 (K-Ras G12C); [2]): 0.1 to 1 µM | IC50 (K-Ras G13C): 0.1 to 1 µM | IC50 (KRAS WT): 0.1 to 1 µM | IC50 (NRAS Q61R; [3]): 1 to 10 µM

CCn1c(-c2cccnc2[C@H](C)OC)c2c3cc(ccc31)-c1cccc(c1)C[C@H](NC(=O)[C@H](C(C)C)N1CC[C@@]3(CCN(C(=O)C#C[C@@H]4COCCN4C)C3)C1=O)C(=O)N1CCC[C@H](N1)C(=O)OCC(C)(C)C2 (atropisomer, axis not shown) [Example A549]
EC50 [1]: < 5 µM | IC50 (NCI-H358 (K-Ras G12C); read-out: Additional H358 Cell Viability assay data (K-Ras G12C, IC50, uM), NCI-H358, 5-day treatment): < 0.01 µM | IC50 (K-Ras G13C): 0.1 to 1 µM | IC50 (KRAS WT): 1 to 10 µM | IC50 (NRAS Q61R): 1 to 10 µM
